# Source: PubChem BioAssay (NCI)
# Where “and” joins values, the source holds several entries; their conditions need not be identical. Equal entries are not always repeated.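 Assay format: 96-well plates, 48-hour exposure. GI50: concentration for 50% inhibition of growth. At the TGI there is no net growth.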
# Assays:
# Assay in all cases: inhibition of tumour cell growth, NCI panel, 48 h
# [1] = test system: ACHN renal
# [2] = test system: BT-549 breast
# [3] = test system: MALME-3M melanoma
# [4] = test system: MDA-MB-231 breast
# [5] = test system: NCI-H226 lung
# [6] = test system: NCI-H522 lung
# [7] = test system: NCI/ADR-RES ovarian
# [8] = test system: SK-MEL-5 melanoma
# [9] = test system: SR leukemia
# [10] = test system: TK-10 renal
SMILES,GI50 [1],TGI [1] [µM],GI50 [2],TGI [2] [µM],GI50 [3],TGI [3],GI50 [4],TGI [4] [µM],GI50 [5],TGI [5],GI50 [6],TGI [6],GI50 [7],TGI [7] [µM],GI50 [8],TGI [8],GI50 [9],TGI [9] [µM],GI50 [10],TGI [10]
O=C(Cc1ccc(/C=C/C(=O)c2ncc[nH]2)cc1)Nc1ccc(F)cc1,4.82 µM,9.62,2.73 µM,11.3,7.86 µM,22.1 µM,1.83 µM,10.3,9.85 µM,> 33.3 µM,3.38 µM,9.42 µM,7.18 µM,> 33.3,6.06 µM,11.9 µM,1.11 µM,6.41,7.89 µM,18.4 µM
CC(C)(CN1CCCCC1)C(=O)/C=C/c1ccc(/C=C/C(=O)C(C)(C)CN2CCCCC2)cc1,,0.669,,3.35,,2.24 µM,,0.476,,3.77 µM,,0.167 µM,,2.36,,1.98 µM,,0.646,,2.31 µM
CC(N)C(Cc1ccc(Cl)cc1)c1ccc(Cl)cc1 (stereo not given),4.85 µM,18.5,13.7 µM,28.1,8.17 µM,22.1 µM,4.26 µM,16.8,17.5 µM,39.3 µM,11.4 µM,26.1 µM,13.4 µM,36.9,12.4 µM,25.1 µM,,,12.6 µM,26.2 µM
Cc1cccc(N(C)C(=O)[C@@H]2[C@H](O)CCN2c2nc(C)cc(C(F)(F)F)c2C#N)c1,18.3 µM,41.9,15.6 µM,45.2,19.9 µM,59 µM,19.3 µM,46,23.9 µM,> 100 µM,10.7 µM,32 µM,22.6 µM,89.1,15.6 µM,30.6 µM,5.24 µM,28.6,28.5 µM,> 100 µM
CCN(CC)c1ccc(/C=N/NC(=O)CSc2nc3ccccc3c(=O)n2CCc2ccc(S(N)(=O)=O)cc2)c(O)c1,1.75 µM,> 100,2.21 µM,> 100,3.26 µM,> 100 µM,2.27 µM,50.2,1.34 µM,> 100 µM,3.17 µM,> 100 µM,> 100 µM,> 100,2.49 µM,14.9 µM,0.445 µM,> 100,5.71 µM,> 100 µM
COc1ccc2c(c1)/C(=C\c1c(-c3cc(OC)ccc3OC)nc3sc(C)cn13)C(=O)N2C,28.2 µM,> 100,32.3 µM,> 100,> 100 µM,> 100 µM,16.7 µM,96.7,30.9 µM,> 100 µM,29.6 µM,> 100 µM,27.4 µM,> 100,20.9 µM,65.4 µM,20.8 µM,53,48.7 µM,> 100 µM
COc1ccc(/C=C/C(=O)c2cc(OC)c(OC)c(OC)c2)cc1OCC(=O)Nc1nc2ccc(OC(F)(F)F)cc2s1,1.62 µM,3.85,2.71 µM,29.6,2.69 µM,13.5 µM,2.01 µM,5.01,3.35 µM,32.1 µM,0.671 µM,3.36 µM,0.492 µM,2.31,2.03 µM,10.5 µM,0.391 µM,3.66,2.08 µM,4.62 µM
N#Cc1cc(C#N)c(N)nc1N,,> 100,,> 100,,> 100 µM,,> 100,,> 100 µM,,> 100 µM,,> 100,,> 100 µM,,> 100,,> 100 µM
Cc1nc([P+](c2ccccc2)(c2ccccc2)c2ccccc2)c(Sc2sc(-c3ccccc3)nc2[P+](c2ccccc2)(c2ccccc2)c2ccccc2)o1,1.65 µM,4.92,1.28 µM,6.24,1.36 µM,7.13 µM,1.86 µM,6.27,,,1.43 µM,6.15 µM,3.7 µM,19.8,1.48 µM,2.85 µM,0.372 µM,17.2,2.09 µM,7.63 µM
COc1cc(OC)c2c(c1)OC(c1ccccc1)CC2=O (stereo not given),,> 10,,> 10,,> 10 µM,,> 10,,> 10 µM,,> 10 µM,,> 10,,> 10 µM,,> 10,,> 10 µM
COc1cc2c(cc1OC)[C@@H](Nc1ccc(C#N)cc1)C1COC(=O)[C@@H]1C2c1cc(OC)c(O)c(OC)c1 (stereo not given in full),,1.01,,9.78,1.36 µM and 2.47 µM,70.7 µM and 44.2 µM,,6.67,,0.298 µM,1.11 µM and 5.06 µM,,,> 100,0.499 µM and 0.292 µM,14.3 µM and 2.53 µM,,0.0742,2.49 µM and 1.06 µM,6.73 µM and 7.87 µM
Nc1nccc(-c2c(-c3ccc(F)cc3)ncn2C2CCNCC2)n1,7.61 µM and 1.41 µM,> 25,17.2 µM and 12 µM,> 25,8.72 µM and 5.23 µM,> 25 µM and 21.4 µM,> 25 µM and 3.97 µM,> 25,1.27 µM and 3.97 µM,> 21.2 µM and 20.1 µM,6.98 µM and 2.04 µM,> 25 µM and 7.22 µM,> 25 µM and 5.1 µM,> 25,1.74 µM and 4.23 µM,> 19.9 µM,10.2 µM and 2.23 µM,> 25,7.66 µM and 2.79 µM,> 25 µM and 14.8 µM
CNNC1=NS(=O)(=O)c2cc(C#N)c(Cl)cc2S1,,> 10,,> 10,,> 10 µM,,> 10,,> 10 µM,,> 10 µM,,> 10,,> 10 µM,,,,> 10 µM
CC(=O)O[C@H]1C(=O)[C@@]2(C)C(C(OC(=O)c3ccccc3)[C@]3(O)C[C@H](OC(=O)C(OC(=O)CCCC(=O)NCCCN(C)C)C(NC(=O)c4ccccc4)c4ccccc4)C(C)=C1C3(C)C)C1(OC(C)=O)COC1C[C@@H]2O (stereo not given in full),,> 100,,31.9,,20.8 µM,,13.8,,39.1 µM,,< 0.0105 µM,,70.7,,18.6 µM,,58.2,,33.3 µM
COc1ccc(C2=N[C@@H](Cc3ccccc3)C(=O)Nc3ccsc32)cc1,6.27 µM,39.1,10.6 µM,28.5,10.4 µM,25.9 µM,11.4 µM,29.1,11.2 µM,42 µM,2.71 µM,8.98 µM,3.84 µM,33,3.26 µM,12.1 µM,2.63 µM,11.7,13 µM,56.6 µM
CC(C)(C)c1ccc(S(=O)(=O)Oc2ccc3c4c(c(=O)oc3c2)CCCCC4)cc1,14.4 µM,34.6,17.7 µM,> 100,24.8 µM,76.5 µM,15.2 µM,49.3,9.94 µM,> 100 µM,19.2 µM,> 100 µM,13.9 µM,> 100,5.48 µM,85.4 µM,,,18.1 µM,36.4 µM
C=C=C(CC1CCCCC1=O)S(=O)(=O)c1ccccc1 (stereo not given),,> 10,,> 10,,> 10 µM,,> 10,,> 10 µM,,6.71 µM,,> 10,,> 10 µM,,> 6.03,,> 10 µM
COc1cc(/C=C\c2cc(OC)c(OC)c(OC)c2)cc(N/C=C\C(=O)c2ccc(OC(F)(F)F)cc2)c1OC,5.56 µM,> 100,5.9 µM,> 100,14.7 µM,> 100 µM,3 µM,14.5,19.9 µM,> 100 µM,1.96 µM,6.19 µM,3.04 µM,9.85,3.74 µM,> 100 µM,2.75 µM,41.1,4.79 µM,> 100 µM
CS(=O)(=O)Nc1cncc(-c2ccc3ncnc(Nc4ccc(F)c(Cl)c4)c3c2)c1,1.69 µM,> 100,1.9 µM,7.98,2.08 µM,13.6 µM,2.92 µM,17.6,2.57 µM,21.3 µM,1.01 µM,4.1 µM,15.4 µM,60,1.83 µM,4.48 µM,1.78 µM,10.2,,
Fc1cccc(COc2ccc(Nc3ncnc4sc(-c5cccs5)cc34)cc2Cl)c1,3.24 µM,7.24,6.25 µM,15.6,3.52 µM,10.1 µM,5.73 µM,16.4,4.58 µM,15.2 µM,7.55 µM,> 22.4 µM,4.74 µM,> 17.3,2.93 µM,12 µM,> 16.4 µM,> 25,4.76 µM,10.8 µM
CC(=O)c1ccc2c(c1)c1cc(C(C)=O)ccc1n2CCNC(C)C,,,1.29 µM,3.97,0.23 µM,0.596 µM,0.516 µM,3.16,0.281 µM,2.19 µM,0.257 µM,1.13 µM,0.371 µM,8.09,0.291 µM,0.923 µM,0.142 µM,11.4,0.531 µM,5.02 µM
C=C1CC[C@@H]2[C@](C)(COC(C)=O)[C@H](OC(C)=O)CC[C@@]2(C)[C@@H]1CC(Nc1ccc(S(=O)(=O)NC(C)=O)cc1)C1=CCOC1=O (stereo not given in full),7.54 µM,16.5,2.32 µM,7.93,,,3.32 µM,11.6,1.92 µM,4.62 µM,1.44 µM,4.42 µM,2.51 µM,9.14,3.22 µM,11.5 µM,0.991 µM,18.1,8.01 µM,16.9 µM
Cc1nc2ccc(Nc3nc(Cl)nc(N4CCOCC4)n3)cc2n1Cc1ccccc1,9.35 µM,28.7,2.89 µM,29.4,5.24 µM,24.5 µM,2.22 µM,9.44,7.88 µM,48.9 µM,2.98 µM,20.8 µM,4.43 µM,> 100,,,2.83 µM,> 100,35.8 µM,> 100 µM
COc1cc(Nc2nc3cc(N)cc(N)c3nc2-c2ccccc2)cc(OC)c1OC,16.7 µM,43,16.8 µM,33.6,13 µM,28.2 µM,11.1 µM,29.2,,,18.2 µM,53.1 µM,14.4 µM,44.1,13 µM,27.8 µM,3.31 µM,16,23.9 µM,66.5 µM
O=C(CC(Cl)=C(Cl)Cl)Nc1ccccc1,> 100 µM,> 100,> 100 µM,> 100,> 100 µM,> 100 µM,> 100 µM,> 100,> 100 µM,> 100 µM,> 100 µM,> 100 µM,> 100 µM,> 100,> 100 µM,> 100 µM,,,> 100 µM,> 100 µM
O=C1CSCc2sccc21,,> 100,,> 100,,,,> 100,,> 100 µM,,> 100 µM,,> 100,,> 100 µM,,> 100,,> 100 µM
COC[C@@H](N=C1NC(=O)/C(=C/c2ccc3ncccc3c2)S1)c1ccccc1,9.24 µM,> 25,7.85 µM,> 25,> 23.1 µM,> 25 µM,12.7 µM,> 25,6.88 µM,> 25 µM,7.7 µM,> 23.3 µM,11.6 µM,> 25,7.51 µM,24.9 µM,3.64 µM,15.6,,
COc1ccc(/C=C(/C#N)C(N)=O)c(OC)c1,,> 100,,> 100,,,,> 100,,> 100 µM,,> 100 µM,,> 100,,> 100 µM,,> 100,,> 100 µM
